The results in this text go back to PubChem BioAssay AID1259411 (Chemical Carcinogenesis Research Information System (CCRIS), 2018).

The structures appear in SMILES notation. Active and inactive are the calls of the source. No rule for the calls is given here.

The data set has as its system rodent carcinogenicity bioassays, tumor incidence. Nature of the data set: CCRIS carcinogenicity studies. The procedure, abridged: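 NCI-built, expert-reviewed records of carcinogenicity and related test outcomes (mutagenicity, tumor promotion/inhibition) compiled from published and report sources, historical span 1985-2011, not updated.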

As to `O=[N+]([O-])c1cc2c3ccccc3ccc2c2ccccc12`, the carcinogen call is, setting by setting: (Species: MOUSE, Strain/Sex: B6C3F1/MALE, Route: INTRAPERITONEAL, Dose: 0, 400 NMOL IN 35 µL DMSO ON DAYS 1 (1/7 TOTAL DOSE), 8 (2/7 TOTAL DOSE), AND 15 (4/7 TOTAL DOSE) AFTER BIRTH (STUDY DUR, Tumor Site: Type of Lesion: LIVER: ADENOMA OR CARCINOMA, LUNG: TUMOR) “active; positive”; (Species: MOUSE, Strain/Sex: BLU:HA/FEMALE, Route: INTRAPERITONEAL, Dose: 0, 38.5, 189 UG (TOTAL DOSE) GIVEN TO NEWBORN MICE IN 3 DOSES OF 1/7, 2/7 AND 4/7 OF THE TOTAL ON DAYS 1, 8 AND 15 RESPE, Dose: 0, 38.5, 189 UG (TOTAL DOSE) GIVEN TO NEWBORN MICE IN 3 DOSES OF 1/7, 2/7 AND 4/7 OF THE TOTAL ON DAYS 1, 8 AND 15 RESPE, Tumor Site: Type of Lesion: LUNG: TUMORS) “active; positive”; (Species: MOUSE, Strain/Sex: BLU:HA/MALE, Route: INTRAPERITONEAL, Dose: 0, 38.5, 189 UG (TOTAL DOSE) GIVEN TO NEWBORN MICE IN 3 DOSES OF 1/7, 2/7 AND 4/7 OF THE TOTAL ON DAYS 1, 8 AND 15 RESPE, Dose: 0, 38.5, 189 UG (TOTAL DOSE) GIVEN TO NEWBORN MICE IN 3 DOSES OF 1/7, 2/7 AND 4/7 OF THE TOTAL ON DAYS 1, 8 AND 15 RESPE, Tumor Site: Type of Lesion: LUNG: TUMORS) “active; positive”; (Species: MOUSE, Strain/Sex: ICR/FEMALE, Route: INTRAPERITONEAL, Dose: 0, 7.5, 15, 30 µL OF A 26.7 NMOL/UL DMSO SOLUTION ON 1,8, AND 15 D OF AGE RESPECTIVELY (TOTAL DOSE: 0; 1.4 UMOL) (STUDY, Dose: 0, 7.5, 15, 30 µL OF A 26.7 NMOL/UL DMSO SOLUTION ON 1,8, AND 15 D OF AGE RESPECTIVELY (TOTAL DOSE: 0; 1.4 UMOL) (STUDY, Tumor Site: Type of Lesion: LUNG: ADENOMA) “active; positive”; (Species: MOUSE, Strain/Sex: ICR/FEMALE, Route: INTRAPERITONEAL, Dose: 0, 7.7 UG TOTAL DOSE (1.1 UG/5 µL, 2.2 UG/10 µL, 4.4 UG/20 µL DMSO ON DAYS 1, 8 AND 15) ADMINISTERED TO NEWBORN ANIMALS, Tumor Site: Type of Lesion: LUNG: ADENOMA, ADENOCARCINOMA) “active; positive”; (Species: MOUSE, Strain/Sex: ICR/FEMALE, Route: INTRAPERITONEAL, Dose: 0, 100 NMOL (TOTAL DOSE) ADMINISTERED IN 3 SUBDOSES OF 1/7, 2/7, AND 4/7 ON DAYS 1, 8 AND 15 OF LIFE, RESPECTIVELY (STUD, Tumor Site: Type of Lesion: LUNG: TUMORS) “active; positive”. The carcinogen call (Species: MOUSE, Strain/Sex: ICR/MALE, Route: INTRAPERITONEAL, Dose: 0, 7.5, 15, 30 µL OF A 26.7 NMOL/UL DMSO SOLUTION ON 1,8, AND 15 D OF AGE RESPECTIVELY (TOTAL DOSE: 0; 1.4 UMOL) (STUDY, Dose: 0, 7.5, 15, 30 µL OF A 26.7 NMOL/UL DMSO SOLUTION ON 1,8, AND 15 D OF AGE RESPECTIVELY (TOTAL DOSE: 0; 1.4 UMOL) (STUDY, Tumor Site: Type of Lesion: LUNG: ADENOMA) was “active; positive”; the carcinogen call (Species: MOUSE, Strain/Sex: ICR/MALE, Route: INTRAPERITONEAL, Dose: 0, 7.7 UG TOTAL DOSE (1.1 UG/5 µL, 2.2 UG/10 µL, 4.4 UG/20 µL DMSO ON DAYS 1, 8 AND 15) ADMINISTERED TO NEWBORN ANIMALS, Tumor Site: Type of Lesion: LUNG: ADENOMA, ADENOCARCINOMA) was “active; positive”; the carcinogen call (Species: MOUSE, Strain/Sex: ICR/MALE, Route: INTRAPERITONEAL, Dose: 0, 100 NMOL (TOTAL DOSE) ADMINISTERED IN 3 SUBDOSES OF 1/7, 2/7, AND 4/7 ON DAYS 1, 8 AND 15 OF LIFE, RESPECTIVELY (STUD, Tumor Site: Type of Lesion: LUNG: TUMORS, LIVER: TUMORS) was “active; positive”; the carcinogen call (Species: MOUSE, Strain/Sex: SWISS/FEMALE, Route: INTRAPERITONEAL, Dose: 0, 100, 700 NMOL (TOTAL DOSE) 1/7, 2/7 AND 4/7 ADMINISTERED ON DAYS 1, 8 AND 15 OF LIFE RESPECTIVELY (STUDY DURATION: 32, Dose: 0, 100, 700 NMOL (TOTAL DOSE) 1/7, 2/7 AND 4/7 ADMINISTERED ON DAYS 1, 8 AND 15 OF LIFE RESPECTIVELY (STUDY DURATION: 32, Tumor Site: Type of Lesion: LUNG: TUMOR) was “active; positive”; the carcinogen call (Species: MOUSE, Strain/Sex: SWISS/FEMALE, Route: INTRAPERITONEAL, Dose: 0, 100 NMOL (TOTAL DOSE) ADMINISTERED 1/7, 2/7 AND 4/7 ON DAY 1, 8 AND 15 RESPECTIVELY (STUDY DURATION: 32 WK), Tumor Site: Type of Lesion: LUNG: TUMOR) was “active; positive”; the carcinogen call (Species: MOUSE, Strain/Sex: SWISS/FEMALE, Route: INTRAPERITONEAL, Dose: 0, 100 NMOL ON DAY 1 OF LIFE (STUDY DURATION: 32 WK), Tumor Site: Type of Lesion: LUNG: TUMOR, LIVER: TUMOR) is “active; positive”. Further, the carcinogen call is “active; positive” (Species: MOUSE, Strain/Sex: SWISS/MALE, Route: INTRAPERITONEAL, Dose: 0, 100, 700 NMOL (TOTAL DOSE) 1/7, 2/7 AND 4/7 ADMINISTERED ON DAYS 1, 8 AND 15 OF LIFE RESPECTIVELY (STUDY DURATION: 32, Dose: 0, 100, 700 NMOL (TOTAL DOSE) 1/7, 2/7 AND 4/7 ADMINISTERED ON DAYS 1, 8 AND 15 OF LIFE RESPECTIVELY (STUDY DURATION: 32, Tumor Site: Type of Lesion: LUNG: TUMOR, LIVER: TUMOR); “active; positive” (Species: MOUSE, Strain/Sex: SWISS/MALE, Route: INTRAPERITONEAL, Dose: 0, 100 NMOL (TOTAL DOSE) ADMINISTERED 1/7, 2/7 AND 4/7 ON DAY 1, 8 AND 15 RESPECTIVELY (STUDY DURATION: 32 WK), Tumor Site: Type of Lesion: LIVER: TUMOR, LUNG: TUMOR); “active; positive” (Species: MOUSE, Strain/Sex: SWISS/MALE, Route: INTRAPERITONEAL, Dose: 0, 100 NMOL ON DAY 1 OF LIFE (STUDY DURATION: 32 WK), Tumor Site: Type of Lesion: LUNG: TUMOR, LIVER: TUMOR); “active; positive” (Species: RAT, Strain/Sex: CD-1/FEMALE, Route: INTRAPERITONEAL, Dose: 0, 15, 30, 60, 150, 300 µL OF A 26.7 NMOL/UL SOLUTION ON 1, 8, 15, 22, AND 29 D OF AGE RESPECTIVELY (TOTAL DOSE: 0, 14.8, Dose: 0, 15, 30, 60, 150, 300 µL OF A 26.7 NMOL/UL SOLUTION ON 1, 8, 15, 22, AND 29 D OF AGE RESPECTIVELY (TOTAL DOSE: 0, 14.8, Tumor Site: Type of Lesion: COLON: ADENOCARCINOMA, ADENOMA/DYSPLASIA); “active; positive” (Species: RAT, Strain/Sex: CD-1/MALE, Route: INTRAPERITONEAL, Dose: 0, 15, 30, 60, 150, 300 µL OF A 26.7 NMOL/UL DMSO SOLUTION ON 1, 8, 15, 22 AND 29 D OF AGE RESPECTIVELY (TOTAL DOSE: 0;, Dose: 0, 15, 30, 60, 150, 300 µL OF A 26.7 NMOL/UL DMSO SOLUTION ON 1, 8, 15, 22 AND 29 D OF AGE RESPECTIVELY (TOTAL DOSE: 0;, Tumor Site: Type of Lesion: COLON: ADENOCARCINOMA, ADENOMA); “active; positive” (Species: RAT, Strain/Sex: STRAIN-CD/ FEMALE, Route: INJECTION, Dose: 0, 2.04 UMOL IN 0.1 ML DMSO INJECTED BENEATH EACH OF THREE LEFT THORACIC NIPPLES THEN ON THE NEXT DAY BENEATH EACH THE T, Tumor Site: Type of Lesion: MAMMARY GLAND: TUMOR). Also, the carcinogen call (Species: RAT, Strain/Sex: STRAIN-CD/FEMALE, Route: INJECTION, Dose: 0, 2.04 UMOL IN 100 µL DMSO INJECTED INTO 3 THORACIC MAMMARY GLANDS ON DAY 1 AND INTO 3 INQUINAL MAMMARY GLANDS ON DAY 2, Tumor Site: Type of Lesion: MAMMARY GLAND: FIBROADENOMA, ADENOCARCINOMA, SPINDLE CELL SARCOMA) is “active; positive”.
With `O=C([O-])C(=O)[O-].O=C([O-])C(=O)[O-].[K+].[K+].[O]=[Ti+2]`, the carcinogen call by setting is: (Species: MOUSE, Strain/Sex: SWISS/FEMALE, Route: ORAL, Dose: 0, 5 PPM IN DRINKING WATER FOR DURATION OF STUDY (STUDY DURATION: LIFE SPAN)) “inactive; negative”; (Species: MOUSE, Strain/Sex: SWISS/MALE, Route: ORAL, Dose: 0, 5 PPM IN DRINKING WATER FOR DURATION OF STUDY (STUDY DURATION: LIFE SPAN)) “inactive; negative”.
As for `O=C(O)c1ccccc1O`, the carcinogen call was “inactive; negative. when synthetic solar light (ssl) at 0.3 and 0.6 the minimal erythema d” (Species: Mouse, Strain/Sex: SKH-1/Female (18/Group), Route: Dermal, Dose: 0, 2, 4% administered as topical cream (pH 4) , 5 d/wk, 40 wk, animals held an additional 12 wk for study duration of 1, Tumor Site: Type of Lesion: Skin: Carcinoma in situ, squamous cell carcinoma, basal cell carcinoma); “inactive; negative. when synthetic solar light (ssl) at 0.3 and 0.6 the minimal erythema d” (Species: Mouse, Strain/Sex: SKH-1/Male (18/Group), Route: Dermal, Dose: 0, 2, 4% administered as topical cream (pH 4) , 5 d/wk, 40 wk, animals held an additional 12 wk for study duration of 1, Tumor Site: Type of Lesion: Skin: Carcinoma in situ, squamous cell carcinoma, basal cell carcinoma).
